Measurements: patent publication US4442102A, “1,5-Diphenylpyrazolin-3-one compounds, process and intermediates for preparation thereof and pharmaceutical compositions containing same” (Kali-Chemie Pharma GmbH, priority 1981, dated 1984)

What follows are compounds tested on passive cutaneous anaphylaxis (assay: Inhibition of passive cutaneous anaphylaxis (PCA test)). Conditions: Rattus norvegicus, po; rats, p.o., 10 minutes before ovoalbumin challenge i.p.
Assay type: in vivo, rats (Wistar)
Description: For example, the substances have an inhibiting action on the release of endogenic mediators from mast cells or basophilic leucocytes which leads to allergic reactions. The doses to be used vary, of course, depending on the nature of the substance used, on the mode of administration and on the condition to be treated. In general, however, satisfactory results are achieved in animal experiments with doses of from 0.05 to 75 mg. per kg of body weight.
Description of the test method to determine the inhibition of passive cutaneous anaphylaxis (PCA test, see Arch.int. pharmacology 252 (1981) 316-326).
To prepare the IgE-antiovoalbumin serum, used in the test, by the method of Mota (Immunology 7, (1964) 681) and J. Goose (Immunology 16 (1969) 749), male Wistar rats of 200-250 g. body weight were sensitised by subcutaneous injection of 1 mg. of ovoalbumin and 1 ml. of Bordatella pertussis suspension ("Vaxicoq" Merieux 3.10^10 organisms/ml.). After 14 days, the animals are exsanguinated and the blood is centrifuged. The antiserum thus obtained is stored at […].
Non-sensitised rats are injected, in each case, with 0.1 ml. of antiserum into the skin at four different places on their shaven backs. After 72 hours, a solution of the test compound or, for comparison, only the solvent, is administered orally, and 10 minutes later, 5 mg. of ovoalbumin and 5 mg. of blue dyestuff (Evans blue) in 0.9% strength NaCl solution are administered intraperitoneally. After 30 minutes, the animals are sacrificed and the diameters of the blue spots formed at the sites injected with antiserum are measured. The inhibiting effect of the test substance is determined from the size of the blue spots which appear.
The example numbers given for the compounds of the formula I relate to the preparation Examples below.
`O=c1cc(-c2ccc(Cl)cc2)n(-c2ccccc2)n1CCCN1CCN(c2ccccn2)CC1` [Example 13] gave an ED50 of 8.5 mg/kg. In the case of `Cc1ccnc(N2CCN(CCCn3c(=O)cc(-c4ccccc4)n3-c3ccccc3)CC2)c1` [Example 27], the ED50 is reported as 8.2 mg/kg. In the case of `O=c1cc(-c2ccccc2)n(-c2ccccc2)n1CCCN1CCN(c2ccc(F)cc2)CC1` [Example 22], the ED50 is reported as 9.8 mg/kg. In the case of `O=c1cc(-c2ccccc2)n(-c2ccccc2)n1CCCN1CCN(c2ccccn2)CC1` [Example 1, 1,5-Diphenyl-2-{3-[4-(2-pyridyl)-piperazin-1-yl]-propyl}-pyrazolin-3-one], the ED50 is reported as 0.8 mg/kg.
